According to EP0457326A1, “Antiviral agents” (SYNTEX (U.S.A.) INC., priority 1990, dated 1991):
Like-named read-outs stand apart in the source and are kept apart here.

Legend:
HIV (LAV Strain) = experiment: Antiviral activity in HIV-infected A301 (Alex) cells, read out by reverse transcriptase level; assay type: cell-based; conditions: Human immunodeficiency virus 1, 168 h
Method: This procedure is a modification of a procedure initially described by Chen et al., Biochemical Pharmacology, 36 (24), 4361-4362 (1987).
(§1) A301 (Alex) cells are pre-infected with a constant amount of HIV (LAV Strain) for three hours at 37°C. Test compounds and AZT (control) are added to the infected cells in two, three or five-fold dilutions, diluted out four places for screening and eight places for confirmation in 96 well plates. Unless mentioned the highest concentration is […]. The test plates are incubated in CO₂ at 37°C for seven days (incubation time depends on virus pool titer) with a partial medium/sample change on day four of the incubation period. Uninfected A301 cells with sample dilutions, but without virus, are used to evaluate cytotoxicity.
Reverse transcriptase levels are assayed at the end of the incubation period as follows, to determine if antiviral activity is present.
[…] of medium from the HIV infected Alex cells is added to […] of 3.2% Triton X-100. This solution is incubeted for 30 minutes at 37°C, then […] of 4X assay mix is added to it. The 4X assay mix contains [³H]TTP, poly(A).oligo(dT), potassium chloride, magnesium chloride, dithiothreitol, and Tris-HCl buffer, pH8.0. […] The radioactivity remaining on the 3MM paper is quantitated by scintillation counter, and corresponds to reverse transcriptase level.

[1] = Cytotoxicity in uninfected A301 cells; assay type: cell-based; conditions: human; uninfected A301 cells with sample dilutions, without virus; read-out: Cell Toxicity Partial
Method: as §1, with “Test compounds and AZT (control) are added to the infected cells in two, three or five-fold dilutions, diluted out four places for screening and eight places for confirmation in 96 well plates.” left out

Uninfected A301 cells = experiment: Cytotoxicity in uninfected A301 cells; assay type: cell-based; conditions: uninfected A301 cells with sample dilutions, without virus
Method: as §1, with “Test compounds and AZT (control) are added to the infected cells in two, three or five-fold dilutions, diluted out four places for screening and eight places for confirmation in 96 well plates.” left out

[2] = preliminary results of Biochemical Pharmacology 38, 869-74 (1989); cited from earlier work
HIV = conditions: prior art statement; cited from earlier work
[3] = prior art statement; cited from earlier work

Row | SMILES | MCC at 168 h [1] | Cell Toxicity Complete (Uninfected A301 cells) | antiviral activity [2] | further results
1 | [N-]=[N+]=N[C@]1(CO)O[C@@H](n2cc(Cl)c(=O)[nH]c2=O)C[C@@H]1O [A, 1-(4-azido-2-deoxy-β-D-erythro-pentofuranosyl)-5-chloro-2,4-dioxopyrimidine] | 1 mM | >1000 µM |  | EC50 (HIV (LAV Strain); A301 (Alex) cells pre-infected with HIV (LAV Strain), seven days incubation, reverse transcriptase level, read-out: EC50): 56 nM
2 | O=c1[nH]c(=O)n([C@H]2C[C@H](F)[C@@H](CO)O2)cc1Cl [5-chloro-substituted-3'-fluoro-2',3'-dideoxyuridine] |  |  | potent antiviral activity | 
3 | [N-]=[N+]=N[C@]1(CO)O[C@@H](n2ccc(N)nc2=O)[C@H](O)[C@@H]1O [4'-azidocytidine] |  |  |  | anti-HIV activity (HIV): devoid of anti-HIV activity; cytotoxicity [3]: cytotoxic
4 | Cc1cn([C@H]2C[C@H](N=[N+]=[N-])[C@@H](CO)O2)c(=O)[nH]c1=O [control, 3'-azidothymidine] | > 0.04 mM | >40 µM |  | EC50 (HIV (LAV Strain)): 5 nM
5 | [N-]=[N+]=N[C@H]1C[C@H](n2cc(Cl)c(=O)[nH]c2=O)O[C@@H]1CO [5-chloro-substituted-3'-azido-2',3'-dideoxyuridine] |  |  | potent antiviral activity | 
